Experiments:
FLAG-tagged BCL6 = target: T1, FLAG-tagged BCL6 (Homo sapiens, UniProt P41182+Q09472+Q92793); test: FLAG IP-MS in FLAG-tagged BCL6 knock-in SUDHL5; type: cell-based; settings: FLAG-BCL6 SUDHL5, 1 nM, 2 h
T1 construct: endogenous in cells; host or cells: SUDHL5, CRISPR genomic knock-in at the BCL6 stop codon
Method: 50 million FLAG-BCL6 knock-in SUDHL5 cells were treated compound or DMSO (0.1%) at indicated doses for 2 hours. Cells were lysed in NE10 buffer (20 mM HEPES (pH 7.5), 10 mM KCl, 1 mM MgCl2, 0.1% Triton X-100 (v/v), protease inhibitors (Roche), 15 mM ß-mercaptoethanol), dounced 15 times and pelleted 5 min at 500 g. Nuclei were washed in NE10 buffer and then digested with 250 units benzonase (Millipore) for 30 min rotating at 25°C. Nuclei were resuspended in NE150 buffer (NE10 supplemented with 150mM NaCl) and incubated for 20 min. Lysates were pelleted at 16,000 g for 20 min at 4°C and supernatants were immunoprecipitated by incubating with 2.5 μg FLAG M2 antibody (F1804, Millipore-Sigma) or 2.5 μg p300 (A300–358A, Bethyl Laboratories) antibody with Dynabeads Protein G (Thermo Fisher) overnight at 4°C. The IP fraction was recovered by magnetic separation followed by three washes with NE10 buffer containing 150mM–300mM NaCl but without Triton-X. For mass spectrometry analysis, the IP was then eluted from the beads with Ammonium Hydroxide, pH 11–12; 3% v/v. […]
The reconstituted desalted peptides were then analyzed using a nanoElute 2 UHPLC (Bruker Daltonics, Bremen, Germany) coupled to a timsTOF HT (Bruker Daltonics, Bremen, Germany) via a CaptiveSpray nano-electrospray source. […]

SUDHL5 cells = test: Annexin V staining of SUDHL5; type: cell-based, human
Method: 25,000 cells were plated in 200 μL of media in 96 well U-bottom plates and treated with compound. […] Centrifugation and washing was repeated once more. Cells were then resuspended in 50 μL cold binding buffer (10 mM HEPES pH 7.4, 140 mM NaCl, 2.5 mM CaCl2) and 2.5 μL FITC-Annexin-V (Biolegend 640922). A no-stain control was also included to draw gates. The plate was allowed to incubate for 15 minutes at room temperature, at which point 100 μL of 2.5% FBS in PBS was added to each well. The plate was gently agitated through shaking, and samples were analyzed by flow cytometry on a BD Accuri. At least 50k events were collected per sample.

T1 sequence (Q92793 2-2442 limits assumed, other chains not shown): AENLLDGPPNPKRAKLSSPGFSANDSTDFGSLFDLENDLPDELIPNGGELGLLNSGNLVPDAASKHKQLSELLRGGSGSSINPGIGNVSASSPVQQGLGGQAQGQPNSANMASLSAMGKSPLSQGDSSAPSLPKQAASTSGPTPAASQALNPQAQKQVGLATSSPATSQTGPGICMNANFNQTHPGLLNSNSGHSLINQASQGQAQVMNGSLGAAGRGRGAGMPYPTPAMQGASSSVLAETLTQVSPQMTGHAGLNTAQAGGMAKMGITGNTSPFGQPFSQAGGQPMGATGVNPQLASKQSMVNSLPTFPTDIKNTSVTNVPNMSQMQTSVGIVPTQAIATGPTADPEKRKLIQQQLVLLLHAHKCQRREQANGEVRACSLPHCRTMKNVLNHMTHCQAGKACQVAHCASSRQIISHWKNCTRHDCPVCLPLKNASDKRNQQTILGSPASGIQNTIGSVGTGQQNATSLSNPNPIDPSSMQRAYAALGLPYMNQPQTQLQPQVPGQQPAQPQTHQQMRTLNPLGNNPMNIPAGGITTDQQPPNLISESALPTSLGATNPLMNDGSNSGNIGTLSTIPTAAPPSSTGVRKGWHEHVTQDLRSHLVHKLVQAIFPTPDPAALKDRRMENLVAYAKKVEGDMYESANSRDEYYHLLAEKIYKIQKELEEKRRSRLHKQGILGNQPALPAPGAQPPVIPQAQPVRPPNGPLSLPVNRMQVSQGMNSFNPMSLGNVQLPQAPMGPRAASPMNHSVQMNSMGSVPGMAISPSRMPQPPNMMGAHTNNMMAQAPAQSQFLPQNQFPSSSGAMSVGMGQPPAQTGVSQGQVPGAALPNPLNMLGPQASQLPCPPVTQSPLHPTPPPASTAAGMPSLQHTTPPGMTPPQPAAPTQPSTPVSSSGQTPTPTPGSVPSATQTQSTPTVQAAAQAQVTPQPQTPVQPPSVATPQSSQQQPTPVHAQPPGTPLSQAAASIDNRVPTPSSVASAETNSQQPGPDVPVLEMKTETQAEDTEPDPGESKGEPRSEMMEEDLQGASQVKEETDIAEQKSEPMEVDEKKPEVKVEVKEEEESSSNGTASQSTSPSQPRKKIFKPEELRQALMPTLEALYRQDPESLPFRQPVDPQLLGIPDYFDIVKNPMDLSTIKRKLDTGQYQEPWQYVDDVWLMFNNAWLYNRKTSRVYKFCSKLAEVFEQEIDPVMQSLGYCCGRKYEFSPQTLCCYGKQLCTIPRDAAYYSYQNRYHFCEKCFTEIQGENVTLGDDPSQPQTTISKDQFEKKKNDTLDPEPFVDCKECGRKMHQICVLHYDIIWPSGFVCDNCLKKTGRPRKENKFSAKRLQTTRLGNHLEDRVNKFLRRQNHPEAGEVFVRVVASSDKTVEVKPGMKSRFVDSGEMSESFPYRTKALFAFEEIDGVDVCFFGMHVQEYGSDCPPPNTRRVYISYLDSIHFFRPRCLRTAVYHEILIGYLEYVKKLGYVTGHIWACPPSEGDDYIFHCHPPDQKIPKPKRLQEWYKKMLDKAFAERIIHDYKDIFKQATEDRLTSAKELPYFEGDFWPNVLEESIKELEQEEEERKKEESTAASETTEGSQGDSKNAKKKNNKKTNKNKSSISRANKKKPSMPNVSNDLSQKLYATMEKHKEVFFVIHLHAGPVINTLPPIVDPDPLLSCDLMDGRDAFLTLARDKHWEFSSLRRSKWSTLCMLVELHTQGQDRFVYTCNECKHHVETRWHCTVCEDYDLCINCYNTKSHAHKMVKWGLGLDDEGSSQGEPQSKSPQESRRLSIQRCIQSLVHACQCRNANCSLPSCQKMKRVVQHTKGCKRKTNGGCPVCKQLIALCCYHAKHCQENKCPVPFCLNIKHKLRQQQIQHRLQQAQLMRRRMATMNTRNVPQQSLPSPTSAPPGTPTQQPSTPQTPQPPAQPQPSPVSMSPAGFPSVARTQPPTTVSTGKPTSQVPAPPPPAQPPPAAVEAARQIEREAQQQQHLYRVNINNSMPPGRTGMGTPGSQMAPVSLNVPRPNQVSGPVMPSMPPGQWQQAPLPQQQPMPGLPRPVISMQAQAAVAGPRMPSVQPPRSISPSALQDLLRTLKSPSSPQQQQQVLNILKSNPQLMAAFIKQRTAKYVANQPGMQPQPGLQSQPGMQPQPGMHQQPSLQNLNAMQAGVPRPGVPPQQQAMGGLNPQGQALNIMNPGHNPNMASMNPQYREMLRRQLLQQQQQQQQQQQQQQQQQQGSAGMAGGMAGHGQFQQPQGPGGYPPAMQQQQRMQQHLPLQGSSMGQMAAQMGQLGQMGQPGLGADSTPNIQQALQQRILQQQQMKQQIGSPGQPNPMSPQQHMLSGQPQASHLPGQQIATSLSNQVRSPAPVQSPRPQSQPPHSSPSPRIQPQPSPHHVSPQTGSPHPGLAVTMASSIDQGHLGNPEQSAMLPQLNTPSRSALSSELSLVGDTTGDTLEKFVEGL
T1 sequence (Q09472 2-2414 limits assumed, other chains not shown): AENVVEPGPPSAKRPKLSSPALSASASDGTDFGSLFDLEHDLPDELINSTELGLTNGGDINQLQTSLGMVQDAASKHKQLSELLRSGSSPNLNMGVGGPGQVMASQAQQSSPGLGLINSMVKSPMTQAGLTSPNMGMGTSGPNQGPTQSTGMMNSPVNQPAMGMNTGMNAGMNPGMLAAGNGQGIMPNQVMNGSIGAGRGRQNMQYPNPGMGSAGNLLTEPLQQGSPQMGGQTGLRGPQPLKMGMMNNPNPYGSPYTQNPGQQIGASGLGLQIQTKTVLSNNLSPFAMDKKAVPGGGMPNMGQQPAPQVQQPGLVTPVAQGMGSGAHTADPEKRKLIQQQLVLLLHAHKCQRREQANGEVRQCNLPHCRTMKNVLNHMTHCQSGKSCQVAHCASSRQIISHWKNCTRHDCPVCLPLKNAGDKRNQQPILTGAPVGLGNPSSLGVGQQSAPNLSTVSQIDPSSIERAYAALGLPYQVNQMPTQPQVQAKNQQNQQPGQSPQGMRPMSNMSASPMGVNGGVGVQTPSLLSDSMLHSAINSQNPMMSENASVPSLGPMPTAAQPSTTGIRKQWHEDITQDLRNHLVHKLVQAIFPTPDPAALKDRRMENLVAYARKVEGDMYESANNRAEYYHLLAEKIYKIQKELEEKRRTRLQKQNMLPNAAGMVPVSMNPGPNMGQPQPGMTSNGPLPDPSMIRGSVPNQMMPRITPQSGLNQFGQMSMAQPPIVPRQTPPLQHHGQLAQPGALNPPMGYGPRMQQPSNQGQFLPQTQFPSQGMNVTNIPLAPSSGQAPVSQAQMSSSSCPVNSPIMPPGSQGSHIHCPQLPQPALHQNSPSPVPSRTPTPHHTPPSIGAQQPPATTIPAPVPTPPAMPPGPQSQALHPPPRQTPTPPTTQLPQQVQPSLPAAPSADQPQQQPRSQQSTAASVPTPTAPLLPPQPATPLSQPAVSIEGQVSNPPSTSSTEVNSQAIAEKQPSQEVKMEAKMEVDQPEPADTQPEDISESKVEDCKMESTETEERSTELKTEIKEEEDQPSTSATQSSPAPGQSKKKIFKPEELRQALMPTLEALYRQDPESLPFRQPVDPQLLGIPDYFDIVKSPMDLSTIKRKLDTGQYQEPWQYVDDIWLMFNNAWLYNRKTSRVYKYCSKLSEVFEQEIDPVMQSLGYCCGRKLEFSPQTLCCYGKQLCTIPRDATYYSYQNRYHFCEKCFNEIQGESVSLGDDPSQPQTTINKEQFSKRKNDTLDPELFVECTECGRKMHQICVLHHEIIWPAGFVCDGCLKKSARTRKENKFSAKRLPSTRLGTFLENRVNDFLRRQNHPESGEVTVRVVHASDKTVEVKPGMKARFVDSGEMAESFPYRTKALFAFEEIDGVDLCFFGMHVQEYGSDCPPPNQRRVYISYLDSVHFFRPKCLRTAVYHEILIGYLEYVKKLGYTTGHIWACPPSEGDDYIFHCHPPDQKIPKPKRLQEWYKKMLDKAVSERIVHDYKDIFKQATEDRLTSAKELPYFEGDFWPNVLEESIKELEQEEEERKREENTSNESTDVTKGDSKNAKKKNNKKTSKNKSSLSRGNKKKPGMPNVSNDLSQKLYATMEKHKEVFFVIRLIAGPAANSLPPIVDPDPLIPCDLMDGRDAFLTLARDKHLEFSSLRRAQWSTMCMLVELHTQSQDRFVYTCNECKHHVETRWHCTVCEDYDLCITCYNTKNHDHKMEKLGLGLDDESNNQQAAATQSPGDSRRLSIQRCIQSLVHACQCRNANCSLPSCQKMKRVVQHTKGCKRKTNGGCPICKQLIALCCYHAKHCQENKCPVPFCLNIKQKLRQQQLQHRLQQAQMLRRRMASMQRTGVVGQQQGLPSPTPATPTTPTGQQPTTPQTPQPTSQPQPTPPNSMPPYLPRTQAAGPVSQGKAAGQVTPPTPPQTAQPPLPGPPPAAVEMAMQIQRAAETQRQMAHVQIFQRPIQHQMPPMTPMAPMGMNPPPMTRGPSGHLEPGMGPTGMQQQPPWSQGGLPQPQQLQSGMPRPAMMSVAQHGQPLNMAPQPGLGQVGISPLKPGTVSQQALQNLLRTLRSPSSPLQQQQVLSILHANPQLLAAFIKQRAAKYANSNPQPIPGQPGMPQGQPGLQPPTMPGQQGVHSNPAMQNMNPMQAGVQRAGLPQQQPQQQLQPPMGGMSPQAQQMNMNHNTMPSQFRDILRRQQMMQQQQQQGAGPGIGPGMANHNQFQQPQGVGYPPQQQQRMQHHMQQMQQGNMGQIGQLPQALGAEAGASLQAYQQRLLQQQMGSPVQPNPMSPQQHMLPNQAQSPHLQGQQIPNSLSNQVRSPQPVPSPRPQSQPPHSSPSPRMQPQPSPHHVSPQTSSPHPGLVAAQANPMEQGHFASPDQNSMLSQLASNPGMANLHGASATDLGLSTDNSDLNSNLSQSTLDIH

- enrichment of CBP in FLAG-BCL6 IP, log2(fold change) (FLAG-tagged BCL6; vs DMSO): 3.7
- enrichment of p300 in FLAG-BCL6 IP, log2(fold change) (FLAG-tagged BCL6; no peptides in DMSO, imputed): 3.7
Compound: CNC(=O)COc1cc2cc(Nc3nc(N4CCC(C(=O)N5CCN(CCC(=O)N6CCC(n7nc(N8CCCc9cc(-c%10cnn(C)c%10)c(C(F)F)cc98)c8c7CCN(C(=O)NC)C8)CC6)CC5)CC4)ncc3Cl)cc(OC)c2n(C)c1=O [TCIP3]
- Annexin V-positive cells, times higher than DMSO (SUDHL5 cells; SUDHL5, 10 nM, 72 hours): 2.9 times
- Annexin V-positive cells, times higher than NEG1 (SUDHL5 cells; SUDHL5, 10 nM, 72 hours): 2.3 times
- Annexin V-positive cells, times higher than NEG2 (SUDHL5 cells; SUDHL5, 10 nM, 72 hours): 2.5 times
- cells stained positive for Annexin V (SUDHL5 cells; SUDHL5, 10 nM, 72 hours): 82%
- induction of apoptosis (SUDHL5 cells; SUDHL5, 24, 48, 72 hours): significant increases in Annexin V-positive cells began after 48 hours

— article doi:10.1101/2025.03.14.643404, “A Bivalent Molecular Glue Linking Lysine Acetyltransferases to Oncogene-induced Cell Death” (bioRxiv, 2025)
